According to ChEMBL document CHEMBL1129489:

What was measured:
[1] = molecular target: D(1A) dopamine receptor (Rattus norvegicus) (UniProt P18901); test: (§1) Low-affinity agonist dissociation constant against striatal Dopamine receptor D1A; type: functional
[2] = molecular target: D(2) dopamine receptor (Rattus norvegicus) (UniProt P61169)
[3] = molecular target: D(1A) dopamine receptor (Homo sapiens) (UniProt P21728); conditions: COS-7
[4] = molecular target: D(1A) dopamine receptor (Homo sapiens) (UniProt P21728)
[5] = molecular target: D(2) dopamine receptor (Homo sapiens) (UniProt P14416)
[6] = molecular target: D(1A) dopamine receptor (Homo sapiens) (UniProt P21728); conditions: COS-7; remark: listed apart in the source
[7] = molecular target: D(1A) dopamine receptor (Homo sapiens) (UniProt P21728); remark: listed apart in the source
[8] = molecular target: D(1A) dopamine receptor (Homo sapiens) (UniProt P21728); test: as §1; type: functional

D(1A) dopamine receptor (Rattus norvegicus), sequence (P18901 whole entry): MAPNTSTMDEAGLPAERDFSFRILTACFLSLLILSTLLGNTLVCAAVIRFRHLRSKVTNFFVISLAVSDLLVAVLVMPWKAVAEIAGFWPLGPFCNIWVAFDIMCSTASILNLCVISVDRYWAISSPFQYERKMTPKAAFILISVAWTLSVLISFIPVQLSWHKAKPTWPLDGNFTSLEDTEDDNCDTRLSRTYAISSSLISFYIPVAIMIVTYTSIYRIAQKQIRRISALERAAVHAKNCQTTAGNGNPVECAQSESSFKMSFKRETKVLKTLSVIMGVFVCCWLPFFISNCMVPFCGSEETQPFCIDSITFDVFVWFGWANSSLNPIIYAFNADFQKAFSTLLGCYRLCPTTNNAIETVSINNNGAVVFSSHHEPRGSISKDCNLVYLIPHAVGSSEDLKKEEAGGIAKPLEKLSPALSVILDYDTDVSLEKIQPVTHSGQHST
D(2) dopamine receptor (Rattus norvegicus), sequence (P61169 whole entry): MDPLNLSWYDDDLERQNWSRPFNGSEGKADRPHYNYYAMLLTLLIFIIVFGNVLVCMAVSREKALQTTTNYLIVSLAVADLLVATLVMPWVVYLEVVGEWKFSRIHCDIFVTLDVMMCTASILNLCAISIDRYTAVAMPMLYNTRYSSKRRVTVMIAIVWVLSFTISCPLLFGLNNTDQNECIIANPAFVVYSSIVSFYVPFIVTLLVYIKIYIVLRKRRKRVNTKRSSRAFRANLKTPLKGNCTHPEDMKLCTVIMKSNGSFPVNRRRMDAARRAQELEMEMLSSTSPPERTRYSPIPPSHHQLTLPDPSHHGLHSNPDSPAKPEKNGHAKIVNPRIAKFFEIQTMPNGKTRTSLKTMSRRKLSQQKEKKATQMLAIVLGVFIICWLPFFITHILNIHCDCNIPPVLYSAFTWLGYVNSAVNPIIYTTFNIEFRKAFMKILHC
D(1A) dopamine receptor (Homo sapiens), sequence (P21728 whole entry): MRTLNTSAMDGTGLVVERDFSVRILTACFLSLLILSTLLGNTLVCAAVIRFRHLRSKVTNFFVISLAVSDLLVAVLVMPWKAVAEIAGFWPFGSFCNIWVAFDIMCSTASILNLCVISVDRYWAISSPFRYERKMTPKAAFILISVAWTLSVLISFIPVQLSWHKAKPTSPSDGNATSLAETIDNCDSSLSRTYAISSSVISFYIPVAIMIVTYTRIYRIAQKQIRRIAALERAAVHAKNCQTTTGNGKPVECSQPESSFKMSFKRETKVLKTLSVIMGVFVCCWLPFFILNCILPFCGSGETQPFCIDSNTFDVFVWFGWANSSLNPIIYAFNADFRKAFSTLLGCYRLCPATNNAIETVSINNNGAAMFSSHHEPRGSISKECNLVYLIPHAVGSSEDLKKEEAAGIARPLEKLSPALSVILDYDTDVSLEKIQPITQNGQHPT
D(2) dopamine receptor (Homo sapiens), sequence (P14416 whole entry): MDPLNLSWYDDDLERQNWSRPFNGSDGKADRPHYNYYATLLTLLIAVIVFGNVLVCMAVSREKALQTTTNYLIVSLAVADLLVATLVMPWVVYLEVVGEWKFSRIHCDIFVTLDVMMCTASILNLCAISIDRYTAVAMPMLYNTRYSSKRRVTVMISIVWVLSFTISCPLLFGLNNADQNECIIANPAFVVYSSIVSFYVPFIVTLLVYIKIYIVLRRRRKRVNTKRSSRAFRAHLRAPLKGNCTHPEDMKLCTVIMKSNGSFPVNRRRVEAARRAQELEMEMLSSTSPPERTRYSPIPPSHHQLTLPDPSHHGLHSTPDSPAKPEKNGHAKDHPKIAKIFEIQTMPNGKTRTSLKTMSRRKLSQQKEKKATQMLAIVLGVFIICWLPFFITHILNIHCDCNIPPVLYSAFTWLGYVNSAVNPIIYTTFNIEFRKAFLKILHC

Oc1cc2c(cc1O)[C@@H](c1ccccc1)CNCC2
KL [1]: 381 nM

CNC[C@H](O)c1ccc(O)c(O)c1
KL [2]: 128 µM
KL [1]: 980 nM

CN(C)C1CCc2cc(O)c(O)cc2C1 (stereo unspecified)
KL [2]: 0.463 µM
KL [1]: 734 nM

NCCc1c[nH]c2ccc(O)cc12
KL [2]: 183 µM
KL [1]: 6540 nM

NC[C@H](O)c1ccc(O)c(O)c1
KL [2]: 126 µM
KL [1]: 4140 nM
Log 1/Kd [3]: 4.69

Oc1ccc([C@@H]2CNCCc3c2cc(O)c(O)c3Cl)cc1
KL [1]: 1340 nM

CN1CCc2cccc3c2[C@H]1Cc1ccc(O)c(O)c1-3
KL [4]: 206 nM
KL [5]: 127 nM

C=CCN1CCc2c(cc(O)c(O)c2Cl)[C@@H](c2ccccc2)C1
Log 1/KL [6]: -1.92
KL [7]: 83 nM

NCCc1ccc(O)c(O)c1
KL [1]: 580 nM

CCCN1CCc2cccc3c2[C@@H]1Cc1ccc(O)c(O)c1-3
KL [8]: 5.2 µM

Oc1ccc(C2CNCCc3c2cc(O)c(O)c3Cl)cc1 (stereo unspecified)
KL [2]: 1 µM
KL [1]: 21 nM

CCCN1CCc2cccc3c2[C@H]1Cc1ccc(O)c(O)c1-3
KL [2]: 0.023 µM
KL [1]: 625 nM
